Results on 1 compound are retold here after patent US20230147962A1, “FIBROBLAST ACTIVATION PROTEIN LIGANDS FOR TARGETED DELIVERY APPLICATIONS” (PHILOCHEM AG, priority 2020, published 2023).

The assay concerns the target T1, hFAP (Homo sapiens, UniProt Q12884).
T1 construct: made in house; host or cells: CHO cells, transient gene expression, purified from supernatant
T1 sequence (Q12884 with tags, fused parts or gaps): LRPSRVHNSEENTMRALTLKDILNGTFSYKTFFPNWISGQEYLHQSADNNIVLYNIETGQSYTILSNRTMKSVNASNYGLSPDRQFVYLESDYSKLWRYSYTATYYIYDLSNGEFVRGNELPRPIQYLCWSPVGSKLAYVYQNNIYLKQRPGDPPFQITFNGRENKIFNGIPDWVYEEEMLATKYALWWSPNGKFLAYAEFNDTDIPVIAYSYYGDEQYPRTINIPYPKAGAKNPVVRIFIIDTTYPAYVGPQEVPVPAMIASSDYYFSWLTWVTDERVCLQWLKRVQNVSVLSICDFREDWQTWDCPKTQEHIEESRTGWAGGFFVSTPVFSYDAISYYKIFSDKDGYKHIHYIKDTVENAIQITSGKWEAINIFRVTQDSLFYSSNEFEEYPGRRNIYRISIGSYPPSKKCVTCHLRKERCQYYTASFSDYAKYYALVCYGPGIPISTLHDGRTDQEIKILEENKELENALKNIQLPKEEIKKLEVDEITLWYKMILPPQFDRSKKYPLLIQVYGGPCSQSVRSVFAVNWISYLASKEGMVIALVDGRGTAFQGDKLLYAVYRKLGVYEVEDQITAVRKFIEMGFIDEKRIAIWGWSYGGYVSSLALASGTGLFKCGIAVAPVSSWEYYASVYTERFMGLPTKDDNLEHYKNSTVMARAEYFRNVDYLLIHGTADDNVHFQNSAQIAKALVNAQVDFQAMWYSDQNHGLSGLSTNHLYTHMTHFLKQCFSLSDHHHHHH
Nature of the assay: Chromatographic co-elution (PD-10) of ligand-protein complexes, hFAP. The settings on record: PD-10 column, hFAP 2 μM. The class given is binding. The protocol: A PD-10 column was pre-equilibrated with assay buffer (50 mM Tris, 100 mM NaCl, 1 mM EDTA, pH=7.4) prior to the loading of the complex. Human FAP (2 μM) and fluorescein-labeled binders (6 μM) were incubated for 30 min at 37° C. in the dark. The mixture was loaded and the column was flushed using the assay buffer. The flow through was collected in 96-well plates and the fluorescence was measured immediately on a TECAN microtiter plate reader, monitoring the fluorescence at an excitation wavelength of 485 nm and an emission wavelength of 535 nm. The protein quantities were estimated by measuring the absorbance at 280 nm using a Nanodrop 2000/2000c spectrophotometer.
A PD-10 column was pre-equilibrated with assay buffer (50 mM Tris, 100 mM NaCl, 1 mM EDTA, pH=7.4) prior to the loading of the complex. A mixture of different proteins (hFAP=2 μM, mFAP=5 μM) and conjugate 15 (100 nM) were incubated and loaded on the column. The mixture was flushed using the assay buffer. The flow through was collected in 96-well plates and the fluorescence intensity was measured immediately on a TECAN microtiter plate reader, monitoring the fluorescence at an excitation wavelength of 485 nm and an emission wavelength of 535 nm. The concentration of the proteins was estimated by measuring the absorbance at 280 nm using a Nanodrop 2000/2000c spectrophotometer.

*1 amine or outer side, *2 acyl side, *3 side chain or, on linkers, in order; H or OH if unused. Where a SMILES comes first, the peptide text is derived from it. The star is where a group is joined. Fluorescein(5-Mal) = O=C1OC2(c3ccc(O)cc3Oc3cc(O)ccc32)c2ccc(N3C(=O)CC(*)C3=O)cc21; X1 = N#C[C@@H]1CC(F)(F)CN1C(=O)CNC(=O)c1ccnc2c(N*)cccc12; Suc = O=C(CCC(=O)[*:2])[*:1]

As for `N#C[C@@H]1CC(F)(F)CN1C(=O)CNC(=O)c1ccnc2c(NC(=O)CCC(=O)N[C@@H](CC(=O)O)C(=O)N[C@@H](CCCCN)C(=O)N[C@@H](CC(=O)O)C(=O)N[C@@H](CSC3CC(=O)N(c4ccc5c(c4)C(=O)OC54c5ccc(O)cc5Oc5cc(O)ccc54)C3=O)C(=O)O)cccc12` (stereo partly drawn) [Conjugate 15, (2R,5S,8S,11S)-8-(4-aminobutyl)-5,11-bis(carboxymethyl)-16-((4-((2-((S)-2-cyano-4,4-difluoropyrrolidin-1-yl)-2-oxoethyl)carbamoyl)quinolin-8-yl)amino)-2-(((1-(3′,6′-dihydroxy-3-oxo-3H-spiro[isobenzofuran-1,9′-xanthen]-5-yl)-2,5-dioxopyrrolidin-3-yl)thio)methyl)-4,7,10,13,16-pentaoxo-3,6,9,12-tetraazahexadecanoic acid] ({X1-Suc}-DKDC(Fluorescein(5-Mal))-OH), the “complex formation with hFAP in PD-10 co-elution” value is on record as “stable complex is formed”.
